According to patent publication US20060052248A1, “Use of a substance with oxytocin activity in order to stimulate plant growth” (priority 2001, published 2006):

How the values were obtained:
Assay type in all cases: in vivo
bent (Agrostis tenuis) = test: Germination test, bent seeds
Description: (§1) Statistical analysis was performed by means of 2-way ANOVA followed by Bonferoni's test for post hoc comparison. Results are given as mean values. Differences in the number of germinated seeds, coleoptile length, root length (Example 1) and growth of lettuce (Example 2) were assessed by Student's t-test for independent means. Results were considered significant when p<0.05. In each of 10 Petri dishes with a diameter of 10 cm, 100 seeds of bent (Agrostis tenuis) are placed together with two filter papers. To five of the Petri dishes is added 4.5 ml of a 1 μg/ml aqueous solution of oxytocin. To the other five Petri dishes is added the same amount of tap water. All ten Petri dishes are then placed in darkness for germination during fourteen days at a temperature of 18° C.

[1] = test system: lettuce (Lactuca sativa), sort "Calgary"; test: Growth test, lettuce in nutrient solution; settings: for Root, dm / Shoot, dm: dry weight/fresh weight; for Root length / Root, dw / Root, fw / Shoot, dw / Shoot, fw / Whole plant, dw / Whole plant, fw: harvest 21 days; for Shoot/root, dw / Shoot/root, fw: ratio
Description: Statistical analysis was performed by means of 2-way ANOVA followed by Bonferoni's test for post hoc comparison. Results are given as mean values. Differences in the number of germinated seeds, coleoptile length, root length (Example 1) and growth of lettuce (Example 2) were assessed by Student's t-test for independent means. Results were considered significant when p<0.05.
The plant used was lettuce (Lactuca sativa), sort “Calgary” and non-disinfected ecological seeds were used. In the same manner as in Example 1, 150 seeds are germinated in oxytocin solution and 150 seeds are germinated in tap water, in both cases in darkness.
After germination for six days, the germs are put into 1 litre test vessels with four germs per vessel. To ten vessels are added oxytocin treated germs and to ten other vessels are added germs treated with tap water, giving totally eighty plants. Each vessel contains 1 litre 300 μM calcium sulphate solution. Other nutrients were added on the first and third day and from day five until harvest, 21 days after transferring germs to vessels. Increasing volumes from a stock nutrient solution (24 mM potassium, 2.5 mM magnesium, 22.3 mM ammonium, 4 mM phosphorus, 46.9 mM nitrate, 1 mM chlorine and trace elements) were supplied to meet the immediate nutrient demand of plants with a relative growth rate of 20% day^−1. Three days after the transport of the germs to the vessels, 1 mg of oxytocin was added to half of the oxytocin treated germs and to half of the germs treated with tap water giving a oxytocin concentration of 1 μg/ml. The growth phase experiment was performed in a climate chamber with 14 hours illumination per day at a temperature of 18° C. at light and at a temperature of 14° C. in darkness.
Accordingly, the eighty plants have been treated as follows:
20 plants (5 vessels each having 4 plants)—treated with tap water during germination and growth (denoted −ox/−ox);
20 plants (5 vessels each having 4 plants)—treated with oxytocin solution during germination and with tap water during growth (denoted +ox/−ox);
20 plants (5 vessels each having 4 plants)—treated with tap water during germination and with oxytocin solution during growth (denoted −ox/+ox);
20 plants (5 vessels each having 4 plants)—treated with oxytocin solution during germination and growth (denoted +ox/+ox).

[2] = test system: winter wheat (Triticum sativum); test: Germination test, winter wheat seeds
Description: as §1, with “winter wheat (Triticum sativum)” for “bent (Agrostis tenuis)”, “are” for “are then”

[3] = 1 μg/ml aqueous oxytocin, 14 days darkness, 18° C.
[4] = 100 seeds per dish, 1 μg/ml aqueous oxytocin, 14 days darkness, 18° C.
[5] = versus tap water, 1 μg/ml oxytocin
[6] = +ox/+ox: oxytocin during germination and growth
[7] = +ox/−ox: oxytocin during germination only
[8] = −ox/+ox: oxytocin 1 μg/ml during growth only

oxytocin
Coleoptile length (bent (Agrostis tenuis); [3]): 39.1 mm
Root length (bent (Agrostis tenuis); [3]): 15.7 mm
Germinated seeds (mean number) (bent (Agrostis tenuis); [4]): 9.8
Effect on germination and growth of seeds (in words) (bent (Agrostis tenuis); [5]): only the increase in root length was significant
Root length compared with control (in words) ([1]; +ox/+ox: oxytocin available during the whole experiment period): inhibited
Growth compared with control (−ox/−ox) (in words) ([1]; +ox/+ox: oxytocin during both germination and growth): no effects compared with control
Root, dm [1, 6]: 6.44b %
Shoot, dm [1, 6]: 13.34b %
Root length [1, 6]: 21.00b cm
Root, dw [1, 6]: 0.126b g
Root, fw [1, 6]: 1.94ab g
Shoot, dw [1, 6]: 0.596b g
Shoot, fw [1, 6]: 4.466a g
Whole plant, dw [1, 6]: 0.721b g
Whole plant, fw [1, 6]: 6.41ab g
Shoot/root, dw [1, 6]: 4.76a
Shoot/root, fw [1, 6]: 2.30a
Growth compared with control (−ox/−ox) (in words) ([1]; +ox/−ox: oxytocin at germination): significant increase in growth
Root, dm [1, 7]: 7.03a %
Shoot, dm [1, 7]: 14.06ab %
Root length [1, 7]: 24.4a cm
Root, dw [1, 7]: 0.141a g
Root, fw [1, 7]: 2.03a g
Shoot, dw [1, 7]: 0.641ab g
Shoot, fw [1, 7]: 4.559a g
Whole plant, dw [1, 7]: 0.782a g
Whole plant, fw [1, 7]: 6.59a g
Shoot/root, dw [1, 7]: 4.59a
Shoot/root, fw [1, 7]: 2.24a
Root, dm [1, 8]: 6.92ab %
Shoot, dm [1, 8]: 14.55a %
Root length [1, 8]: 23.6a cm
Root, dw [1, 8]: 0.141a g
Root, fw [1, 8]: 2.00a g
Shoot, dw [1, 8]: 0.656a g
Shoot, fw [1, 8]: 4.508a g
Whole plant, dw [1, 8]: 0.797a g
Whole plant, fw [1, 8]: 6.51ab g
Shoot/root, dw [1, 8]: 4.67a
Shoot/root, fw [1, 8]: 2.25a
Growth compared with control (−ox/−ox) (in words) ([1]; −ox/+ox: oxytocin during growth in nutrient solution): significant increase in growth
Coleoptile length [2, 3]: 27.4 mm
Root length [2, 3]: 36.0 mm
Germinated seeds (mean number) [2, 4]: 97.0
Effect on germination and growth of seeds (in words) [2, 5]: increased the number of germinated seeds and stimulated the growth of seeds
